Series [1] can be described thus: Second order rate of pyrrole formation with the model γ-ketoaldehyde 4-oxopentanal. It is filed as biochemical. As to the method:
The present inventors determined the approximate second order rate constants of different amines for pyrrole formation with […], a γ-ketoaldehyde.
These compounds are tested for the rate of pyrrole formation when incubated with the γ-ketoaldehyde, 4-oxopentanal. […] Ehrlich reagent may be used to detect levels of pyrroles.
All rates are shown relative to N-α-acetyl-lysine.

For series [2], the system named is 20S proteasome. The series is described as follows: Degradation of adducted ovalbumin by purified 20S proteasome. It is filed as biochemical.
The subject of series [3] is patients convalescing from myocardial infarction. The conditions noted are these: in vivo; cited from earlier work.
For series [4], the system named is mice subjected to ligation of the left anterior coronary artery. The series is described as follows: Myocardial infarction by coronary ligation in mice. It is filed as in vivo, mouse. The text has this:
(§1) In a series of experiments, the present inventors have tested the effect of the γ KA scavenger salicylamine (SA) in mice subjected to ligation of the left anterior coronary artery resulting in a myocardial infarction. All experiments were done in blinded fashion regarding the treatment group (SA versus placebo (water)). Mice received drinking water containing either SA (1 g/l) or no drug for three days prior to coronary ligation and for 7 days afterwards.
The present inventors examined the effect of SA treatment on Lys-lactam protein adduct formation. Mouse hearts were harvested 7 days after coronary ligation and the atria and the right ventricular free wall were removed. The remainder of each heart (LV free wall and septum) was then cut into two, roughly equal tissue specimens of ˜50 mg wet weight: The anterior-apical part contained the infarct and the peri-infarct border zone (MI+borderzone), and the posterior-basal part was unaffected (Remote). The tissue content of Lys-lactam protein adducts was quantified using our LC MS^2 based analytical technique.

A short description of series [5]: SA in the drinking water of mice: concentrations and tolerability. It is filed as in vivo, C57BL6 mice. As to the method: as §1
SA was tested to determine whether it could be used in vivo. 1 g/L or 5 g/L salicylamine was added to the drinking water of C57BL6 mice for 5 days and then harvested plasma and liver from the animals. SA was measured by monitoring absorption at 259 nm after derivatization with 1,1′-thiocarbonyldiimidazole.

The nature of series [6]: Oxidation of arachidonic acid in the presence of scavenger and 10 molar excess of lysine. As to conditions: for levels of Lys-lactam adduct formed: compared to vehicle. It is filed as biochemical. The text has this: The amounts of each of these adducts to the amount of γ KA adduct formed were normalized. […] Because cardiac ion channels are embedded in cellular membranes, the ability to penetrate into membranes is critical.

Series [7] can be described thus: Lipophilicity / penetration into nonpolar environments. Type of series: physicochemical.
The subject of a further series is HepG2 cell. As to the kind of experiment: Cellular viability of HepG2 cells exposed to hydrogen peroxide. It is filed as cell-based.
The test system of series [8] is transgenic humanized apoE4 mice (hApoE4). As to the kind of experiment: Water radial arm maze in transgenic humanized apoE4 mice. Type of series: in vivo, mouse. As to conditions: water containing SA, six months, tested at 12 months of age. Also noted: dose or concentration left out as unconfirmed. The text has this: Starting at six months of age, wild-type (C57) and transgenic humanized apoE4 mice (hApoE4) were given either standard water or water containing […] SA (+SA) as their only source of drinking water. At this time, animals were also switched from standard chow diets to either a sufficient amino acid based diet (suff) or an amino-acid based diet insufficient in choline, methionine, and folate, and enriched in homocysteine (HC). All animals were fed diets and drinking water for six months (to 12 months of age) prior to testing. The purpose of the HC diet was to attempt to exacerbate oxidative stress in these animals. Because breeding and behavioral testing is extremely time consuming, it was not possible to have sufficient animals for each group in a single cohort and still perform adequate behavioral testing. Therefore two separate cohorts of animals (A & B) were raised and tested about two month apart. […]
The water radial arm maze test requires a mouse to find a hidden platform placed in one of six maze arms. […] If the mouse enters an arm without the platform, an error is scored and the mouse is dragged by the tail back to the start arm and released. […] If a mouse swims in the central area for 12 sec without picking an arm, an error is also scored and the animal is dragged back to the start arm and released. […]

In series [9] the target is 20S proteasome (Homo sapiens, UniProt P28074). As to the kind of experiment: Inhibition of 20S proteasome chymotrypsin-like activity (LLVY-amc hydrolysis). It is filed as biochemical.
Description: Because nondegradable substrates often act as competitive inhibitors, the inventors tested whether E2-IsoK adducted proteins would inhibit proteasome chymotrypsin-like activity as measured by hydrolysis of a fluorogenic substrate, LLVY-amc.
The target in a further series is bovine serum albumin (Bos taurus, UniProt P02769). As to the kind of experiment: Disappearance of free IsoK and HNE during incubation with bovine serum albumin (rate of adduction). The conditions noted are these: after 80 minutes. It is filed as biochemical. As to the method:
Oxidation of AA in vitro produces both F2-IsoPs and IsoKs in nearly equivalent amounts. However, comparison of the formation of F2-IsoPs and IsoKs in vivo is more complex, because IsoKs rapidly adduct to lysyl residues on proteins. […] In striking contrast, approximately 50% of the HNE still remained in free form after 80 minutes.

In a further series the target is ovalbumin (OVA) (Gallus gallus, UniProt P01012). The series is described as follows: Protein cross-linking after incubation with ovalbumin. Type of series: biochemical. As to conditions: 10 molar equivalents, about 4 hours. The text has this:
The above findings explained why repeated attempts in the past to detect free IsoKs during oxidation of biological systems in vitro, e.g. microsomes, and in animal models of oxidant injury in vivo were unsuccessful because they are rapidly sequestered as protein adducts. Therefore, the present inventors undertook to determine the identity of IsoK lysyl adducts as a basis for development of methodology to detect IsoK and NeuroK adducts in biological tissues in their adducted form. […] Reversible Schiff base adducts were also identified. Schiff base adducts are formed rapidly and then decline over time, whereas lactam adducts accumulate slowly over time. Lysyl protein adducts of IsoKs and NeuroKs are analyzed by LC/MS/MS following enzymatic digestion of proteins to individual amino acids. Enzymatic digestion of proteins is necessary because the adducts degrade during acid hydrolysis. However, this analysis is further complicated by the proclivity of IsoKs and NKs to induce protein crosslinking, which is resistant to hydrolysis. […] This is a dramatic example of the differential effects of IsoKs/NKs and HNE on protein adduction and cross-linking.

The next series has as its system proteasome. As to the kind of experiment: Hydrolysis of fluorogenic substrate VKM-amc by proteasome containing cell lysates. Type of series: biochemical. As to conditions: equimolar adduction of VKM-amc.
Series [10] addresses human cardiac Na channel (hH1, or SCN5A) (Homo sapiens, UniProt Q14524). The series is described as follows: Whole-cell Na current recording, wild-type hH1 expressed in HEK-293 cells. As to conditions: HEK-293; t-BHP 1 mM, Iso-K 10 μM, flecainide 1 μM.
In series [11] the test system is plasma concentrations of F2-IsoPs. The series is described as follows: Vitamin E supplementation, plasma F2-IsoPs in subjects with hypercholesterolemia. It is filed as in vivo, human. On the procedure:
The use of antioxidants to suppress oxidative injury: An important aspect of antioxidant clinical trials that has not received sufficient attention until recently, is the scientific rational for the choice of a particular antioxidant to test, the dose to test, and the duration of treatment. […] This was a key finding because the literature is abound with studies in which have vitamin E was administered for less than 10 weeks to determine its effects on some pathologic process. […] This is an important finding because many studies of the effects of vitamin E have used doses of 400 I.U./d and observed no benefit.

In another series the test system is progression of AD. The conditions noted are these: 2000 I.U./d; cited from earlier work.

Entries after “also recorded” stand apart in the source; their conditions may differ.

human cardiac Na channel (hH1, or SCN5A), sequence (Q14524 whole entry): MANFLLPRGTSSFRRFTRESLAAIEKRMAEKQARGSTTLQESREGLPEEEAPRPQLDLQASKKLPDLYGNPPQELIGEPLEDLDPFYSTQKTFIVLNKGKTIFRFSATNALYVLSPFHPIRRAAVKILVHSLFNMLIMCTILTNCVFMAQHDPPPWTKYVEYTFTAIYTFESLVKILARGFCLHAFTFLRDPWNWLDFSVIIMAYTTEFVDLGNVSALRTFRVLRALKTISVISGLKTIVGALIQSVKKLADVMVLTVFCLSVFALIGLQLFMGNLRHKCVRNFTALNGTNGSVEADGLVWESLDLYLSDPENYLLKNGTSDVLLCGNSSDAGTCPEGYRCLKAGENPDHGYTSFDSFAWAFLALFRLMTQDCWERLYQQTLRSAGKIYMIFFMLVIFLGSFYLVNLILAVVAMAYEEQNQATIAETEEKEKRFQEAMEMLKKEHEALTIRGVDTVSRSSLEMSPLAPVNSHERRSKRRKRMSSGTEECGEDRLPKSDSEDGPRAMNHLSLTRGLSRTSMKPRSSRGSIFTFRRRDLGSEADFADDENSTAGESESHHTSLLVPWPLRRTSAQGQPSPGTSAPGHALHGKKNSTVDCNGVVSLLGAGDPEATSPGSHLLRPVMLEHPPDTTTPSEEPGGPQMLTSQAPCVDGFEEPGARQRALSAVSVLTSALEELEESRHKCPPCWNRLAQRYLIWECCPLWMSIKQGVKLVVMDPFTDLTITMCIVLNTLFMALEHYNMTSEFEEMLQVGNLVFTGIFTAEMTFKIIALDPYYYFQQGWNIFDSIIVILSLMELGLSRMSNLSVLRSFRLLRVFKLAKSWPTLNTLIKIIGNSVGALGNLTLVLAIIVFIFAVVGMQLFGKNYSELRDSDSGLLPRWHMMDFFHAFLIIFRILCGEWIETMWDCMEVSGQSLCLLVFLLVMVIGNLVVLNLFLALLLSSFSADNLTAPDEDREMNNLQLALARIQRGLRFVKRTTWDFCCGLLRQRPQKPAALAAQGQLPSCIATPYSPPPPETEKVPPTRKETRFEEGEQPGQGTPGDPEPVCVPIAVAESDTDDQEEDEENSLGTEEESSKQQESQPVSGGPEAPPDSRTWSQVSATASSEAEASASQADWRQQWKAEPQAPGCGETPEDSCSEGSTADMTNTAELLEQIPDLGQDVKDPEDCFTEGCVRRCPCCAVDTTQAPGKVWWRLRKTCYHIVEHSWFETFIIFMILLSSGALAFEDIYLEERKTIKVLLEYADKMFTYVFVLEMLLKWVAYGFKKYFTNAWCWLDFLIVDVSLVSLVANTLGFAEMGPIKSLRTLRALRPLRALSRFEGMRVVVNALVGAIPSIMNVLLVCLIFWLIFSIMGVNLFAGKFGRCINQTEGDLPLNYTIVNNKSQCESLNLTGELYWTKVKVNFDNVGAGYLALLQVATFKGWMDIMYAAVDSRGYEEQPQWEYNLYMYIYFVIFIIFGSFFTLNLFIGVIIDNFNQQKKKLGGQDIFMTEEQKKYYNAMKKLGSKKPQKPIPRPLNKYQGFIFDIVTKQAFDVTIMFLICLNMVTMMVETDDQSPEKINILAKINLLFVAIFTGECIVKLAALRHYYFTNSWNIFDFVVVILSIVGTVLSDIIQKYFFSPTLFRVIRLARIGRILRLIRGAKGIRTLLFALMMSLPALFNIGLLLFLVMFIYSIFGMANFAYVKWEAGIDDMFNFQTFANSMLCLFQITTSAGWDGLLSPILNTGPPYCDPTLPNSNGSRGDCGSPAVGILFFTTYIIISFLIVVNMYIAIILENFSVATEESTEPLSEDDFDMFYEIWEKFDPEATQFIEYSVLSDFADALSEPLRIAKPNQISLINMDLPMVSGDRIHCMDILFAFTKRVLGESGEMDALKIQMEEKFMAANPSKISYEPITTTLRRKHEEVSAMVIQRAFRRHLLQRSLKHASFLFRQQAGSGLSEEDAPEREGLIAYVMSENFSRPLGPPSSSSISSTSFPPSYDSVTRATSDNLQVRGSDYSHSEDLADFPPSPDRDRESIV
ovalbumin (OVA), sequence (P01012 whole entry, species assumed): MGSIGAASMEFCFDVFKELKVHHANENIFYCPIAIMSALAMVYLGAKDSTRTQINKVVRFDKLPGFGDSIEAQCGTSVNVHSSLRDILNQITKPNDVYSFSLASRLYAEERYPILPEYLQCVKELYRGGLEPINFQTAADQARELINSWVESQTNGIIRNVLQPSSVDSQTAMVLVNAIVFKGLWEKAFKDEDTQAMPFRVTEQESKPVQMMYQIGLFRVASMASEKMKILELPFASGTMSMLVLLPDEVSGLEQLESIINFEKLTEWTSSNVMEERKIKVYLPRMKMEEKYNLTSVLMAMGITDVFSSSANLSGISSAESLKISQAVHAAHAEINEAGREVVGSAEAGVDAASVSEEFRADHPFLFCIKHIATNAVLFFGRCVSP
bovine serum albumin, sequence (P02769 25-607): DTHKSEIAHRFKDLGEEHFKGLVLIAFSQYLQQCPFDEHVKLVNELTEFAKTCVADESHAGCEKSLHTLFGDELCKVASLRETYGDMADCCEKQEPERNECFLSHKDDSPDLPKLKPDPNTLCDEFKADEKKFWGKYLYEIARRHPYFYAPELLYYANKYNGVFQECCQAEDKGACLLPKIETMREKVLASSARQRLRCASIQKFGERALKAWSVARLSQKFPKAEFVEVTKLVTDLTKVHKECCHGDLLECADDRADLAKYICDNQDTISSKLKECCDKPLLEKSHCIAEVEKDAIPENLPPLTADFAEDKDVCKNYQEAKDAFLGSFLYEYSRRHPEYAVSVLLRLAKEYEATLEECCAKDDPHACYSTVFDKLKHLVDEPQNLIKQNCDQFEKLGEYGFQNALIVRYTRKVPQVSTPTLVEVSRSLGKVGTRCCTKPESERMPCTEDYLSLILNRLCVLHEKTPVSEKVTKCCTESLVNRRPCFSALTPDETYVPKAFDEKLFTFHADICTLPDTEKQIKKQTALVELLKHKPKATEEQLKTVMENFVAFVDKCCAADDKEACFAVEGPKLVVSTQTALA

As for `NCCO` [2-aminoethanol], in [1], the “approximate second order rate constants for pyrrole formation” value is 3.1e+08 M⁻¹ s⁻¹.
As to “IsoK(1)-OVA: ovalbumin adducted with equimolar E2-IsoK”, in the series with 20S proteasome [2], the “degradation by purified 20S proteasome” value was “nearly in half”.
On to `NCc1ccc(O)cc1` [4-SA, 4-salicylamine], for which the “scavenging γ KAs” value in [1] is “inactive”.
With `CC(=O)N[C@@H](CCCCN)C(=O)O` [N^αacetyllysine], the “approximate second order rate constants for pyrrole formation” value in series [1] was found to be 7e+07 M⁻¹ s⁻¹.
`COc1ccc(C(=O)Nc2ccccc2CCC2CCCCN2C)cc1` (stereo not drawn) [encainide]: the mortality increase result in series [3] is reported as “three-fold”.
Regarding `NCc1ccccc1O` [SA, salicylamine], in series [1], the “scavenging γ KAs” value was “very good at scavenging”. Moreover, in series [4] (1 g/l in drinking water, 7 days post MI), the “systolic function, fractional LV shortening (FS) by echocardiography” value is given as “improved systolic function”. The “Lys-lactam protein adducts in infarct and peri-infarct borderzone” value in series [4] (7 days after coronary ligation) is given as “appears to prevent the adduct formation”. The infarct size result in series [4] (hearts harvested 7 days after coronary ligation) is “significantly reduced infarct size”. Further, the “survival after MI” value in series [4] (p=0.1) is reported as “trend towards increased survival”. Also, the “tolerability of the dosing regimen” value in series [5] (1 g/l in drinking water) is reported as “well tolerated”. Also, the oral bioavailability result in series [5] (mouse, in vivo, po) is recorded as “orally bioavailable”. Also, in [6], the “levels of F2-IsoP formed” value is “None of the three scavengers reduced”, the “selectivity for γ KA products over other lipid peroxidation products” value is listed as “relatively selectively” and the “levels of Lys-lactam adduct formed” value is reported as “markedly reduced”. The “lipophilicity / penetration into nonpolar environments” value in series [7] was “readily dissolve into ethyl acetate; also recorded: most lipophilic scavenger”. In the series on HepG2 cell, the “protection of cellular viability” value is given as “best protection”. Moreover, in series [8], the “memory performance (latency, Z-score)” value is “significantly improved the performance”. The “memory performance (latency, Z-score)” value in [8] (listed as salicylamine) is listed as “improves memory”.
Take “IsoK-Aβ1-40: Aβ1-40 adducted with E2-IsoK”: 1300 nM corresponded to half-maximal inhibition with 20S proteasome [9] (IC50).
For the compound `CCCCCC(O)/C=C/C=O` (stereo not drawn) [HNE, 4-hydroxynonenal], the “remained in free form” value on bovine serum albumin is recorded as “approximately 50%”. Further, the cross-linking of ovalbumin entry on ovalbumin (OVA) was “no cross-linking was observed”. In the series on proteasome, the “hydrolysis of the adducted peptide by proteasome containing cell lysates” value was “no effect on hydrolysis”. Besides, the “V1/2 voltage-dependence of inactivation (availability)” value in [10] is on record as −83.7±2.1 mV.
As for “IsoK(10)-OVA: ovalbumin adducted with ten molar equivalents of E2-IsoK”, the “degradation by purified 20S proteasome” value in the series with 20S proteasome [2] is on record as “completely blocked its degradation”.
Take `NCc1ccncc1` [4-picolinylamine]: the approximate second order rate constants for pyrrole formation in series [1] stood at 0.0011 M⁻¹ s⁻¹.
As to pentylpyridoxamine [PPM], in [1], the “scavenging γ KAs” value is listed as “very good at scavenging”. In [6], the “levels of F2-IsoP formed” value is recorded as “None of the three scavengers reduced”, the “selectivity for γ KA products over other lipid peroxidation products” value was “relatively selectively; also recorded: most selective” and the “levels of Lys-lactam adduct formed” value is recorded as “markedly reduced”. Further, the “protection of cellular viability” value in the series with HepG2 cell is reported as “slightly less protection”.
Regarding vitamin E, the “reduction of F2-IsoP levels” value in [11] (800 I.U./d, 18 weeks) is on record as “about 10%”. In [11] (3200 I.U./d, 18 weeks), the “maximum suppression of plasma F2-IsoPs” value is on record as 49%. Besides, the “effect on F2-IsoP levels” value in series [11] (doses below 800 I.U./d, 18 weeks) was “no significant effect”. Besides, the “supplementation required to reach the plateau in maximum suppression of plasma F2-IsoPs” value in series [11] (human, in vivo) is listed as “sixteen”. In addition, the “effect to slow the progression of the disease” value with progression of AD is listed as “modest effect”.
In the case of F2-isoprostane, the “V1/2 voltage-dependence of inactivation (availability)” value in [10] is given as −91.4±1.8 mV.
Take `Cc1ncc(CO)c(CN)c1O` [PM, pyridoxamine]: in series [7], the “lipophilicity / penetration into nonpolar environments” value is reported as “quite hydrophilic; also recorded: poorly penetrates into nonpolar environments”. In addition, in the series on HepG2 cell, the “protection of cellular viability” value was “no significant protection”.
